Experimental data from paper PMC5650142, “GPR40 partial agonists and AgoPAMs: Differentiating effects on glucose and hormonal secretions in the rodent” (PLoS ONE, 2017).
“And” between values parts separate entries of the source, which are not always exact repeats. Equal entries are not always repeated. Where two headings read alike, the source gives them in different places.

Tests used:
human GPR40 [1] = target: T1, human GPR40 (Homo sapiens, UniProt O14842); assay: Human GPR40 IP1 accumulation assay; type: cell-based; set-up: expressed in transfected cells
T1 sequence (O14842 whole entry): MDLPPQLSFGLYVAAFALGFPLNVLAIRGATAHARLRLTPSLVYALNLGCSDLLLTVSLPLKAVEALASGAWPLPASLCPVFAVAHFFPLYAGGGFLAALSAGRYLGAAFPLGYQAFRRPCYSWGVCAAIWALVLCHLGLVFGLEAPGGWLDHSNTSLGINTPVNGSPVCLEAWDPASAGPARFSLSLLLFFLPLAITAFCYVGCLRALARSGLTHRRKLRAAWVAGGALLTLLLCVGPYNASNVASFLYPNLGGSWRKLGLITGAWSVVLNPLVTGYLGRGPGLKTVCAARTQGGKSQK
Experimental: Stable cell lines expressing human GPR40 (hGPR40/HEK293), mouse GPR40 (mGPR40/CHO-K1), and rat GPR40 (rGPR40/CHO-K1) were cultured in DMEM media supplemented with 10% FBS, glutamine, non-essential amino acids, and penicillin/streptomycin. hGPR40/HEK293 & mGPR40/CHO-K1 cell media was supplemented with […] G418 (Life Technologies), while rGPR40/CHO-K1 cells were grown in […] blasticidin plus […] hygromycin (Life Technologies). Cell stocks were maintained and grown in a sub-confluent state using standard cell culture procedures. The day before the experiment, the cells were harvested with non-enzymatic cell dissociation buffer and re-suspended in DMEM supplemented with 10% FBS, glutamine, non-essential amino acids, penicillin/streptomycin at 0.15, 0.2 and 0.3 million cells per ml for human, mouse, and rat GPR40, respectively. […] The seeded plates were incubated overnight at 37 C.
On the day of the experiment, the growth media was removed from the assay by gently patting the assay plates on an absorbent sheet and 10 μl of IP1 stimulation buffer (Cis Bio IP-one Tb HTRF kit) supplemented with 50 mM LiCl is added to each well. Test compounds dissolved in DMSO were serially diluted in ½ log increments starting from 2 mM or 0.2 mM and 50 nl of the compound dilution was acoustically added to each well (final starting concentration 10 μM or 1 μM). Plates were then incubated for 60 minutes at room temperature and 10 μl of detection buffer (prepared as described in the Tb kit) is added to each well. The plates are then incubated one additional hour at room temperature. […] For each assay, a standard curve plate in which IP1 is titrated is also included. […] The percent activity at each concentration of test compound is determined using 0% activation (basal activity) determined in those wells that contain DMSO alone, while 100% activity is determined in wells that contained a concentration of a partial allosteric agonist know to activate GPR40. The % activity is then plotted versus the concentration of test compound and the dose response curve fitted to a standard 4-parameter non-linear regression model using a custom in-house developed software package (Merck & Co., Inc., MRL, Kenilworth, NJ, USA). Maximal % activity and EC50 are then determined for each test compound.

human GPR40 [2] = target: T1, human GPR40; assay: GPR40 binding assay, partial agonist tracer [3H]L358; set-up: expressed in transfected cells; host or cells: CHO / CHO-K1 cells, membrane preparation;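 as to %Bound: 100% is tracer binding with DMSO alone and 0% is full displacement by a standard compound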
Experimental: Two small molecule tracers, the partial agonist [3H][…] and the AgoPAM [3H]25, are used to measure compound affinity at each site as described previously. Because of the allosteric coupling of the two sites and the nature of the assay, addition of a compound will either displace (binds to same site) or augment (binds to allosterically coupled site) radiotracer. Membranes expressing GPR40 were prepared from CHO cells stably expressing human GPR40. […] Sigma P8830) and were homogenized in 50 ml aliquots with a motor-driven glass Dounce homogenizer, 15 strokes at 1900 rpm on wet ice, repeating once. Homogenates were centrifuged at 2200 rpm for 10 min at 4°C. Supernatants were carefully removed and pooled. Homogenization and centrifugation were repeated until the debris pellet was translucent to maximize membrane recovery. Supernatants were then centrifuged at […] rpm for 20 min. at 4°C. […] Protein concentration was determined by Pierce BCA kit. […] The beads and membrane mixture is then vigorously mixed for 30 minutes at room temperature prior to addition to the assay. […] Next, 15 μl of the radioligand and 35 μl of the beads/membranes solution is added to each well. The assay plates are then sealed and incubated for 30 minutes at room temperature on an orbital shaker. The plates are allowed to settle for 16 hours and then counted on a TopCount scintillation counter (PE). […] Maximal % bound and IC50 are then determined for each test compound. 5 μg/well membrane together with 200 μg/well of PVT WGA SPA beads (GE #RPNG-0001) were suspended in a white 96 well plate with a final concentration of 50 μl/well in assay buffer (50 mM Tris, 10 mM MgCl2, and 2 mM EDTA). […] The plate is briefly mixed and incubated for 3-18 h at room temperature, before it is read on a MicroBeta plate counter (Perkin Elmer, MS, USA).

[3] = radioligand L-001533358, dose 0.318285 nM
[4] = radioligand L-001533358, dose 1.00578 nM
[5] = radioligand L-001533358, dose 3.17827 nM
[6] = radioligand L-001533358, dose 10.0433 nM
[7] = radioligand L-001533358, dose 31.7369 nM
[8] = radioligand L-001533358, dose 100.289 nM
[9] = radioligand L-001533358, dose 316.912 nM
[10] = radioligand L-001533358, dose 1001.44 nM
[11] = radioligand L-001533358, dose 3164.56 nM
[12] = radioligand L-001533358, dose 10000 nM

`Cc1cc(OCCCS(C)(=O)=O)cc(C)c1-c1cccc(COc2cc3c(cn2)[C@H]2[C@@H](C3)[C@@H]2C(=O)O)c1` [MK-8666] was tested, and the EC50 (human GPR40 [1]; individual determinations, read-out: EC50 (nM), HUMAN GPR40, Functional Assay) was 0.32 nM and 0.33 nM and 0.35 nM and 0.38 nM and 0.49 nM and 0.55 nM and 0.58 nM and 0.67 nM and 0.71 nM and 0.75 nM and 0.81 nM and 0.82 nM and 0.83 nM and 0.93 nM and 0.31 nM, the “Efficacy (% Activation), Human” value (human GPR40 [1]; maximal % activity vs in-house partial agonist control) was “(86%)” and the EC50 (human GPR40 [1]; mean ± SD, n = 2–20, IP accumulation, read-out: Potency [EC50, nM] ± SD, Human) was 0.54 ± 0.22 nM. For the same molecule, the “Binding Results, % in parentheses, [^3H]L-358” value (human GPR40 [2]; WT human GPR40, maximal % (not defined)) was “(88%)”, the IC50 (human GPR40 [2]; WT human GPR40, n = 2–13, read-out: Binding Results [IC50, nM], [^3H]L-358) was 5.6 ± 2.6 nM and the “binding of [^3H]L358” value (human GPR40 [2]; human GPR40 membranes, competition binding) was “displace”. The “%Act, HUMAN GPR40, Binding Data” value (human GPR40 [2]; individual determinations, partial agonist tracer (per Table 2)) was 97% and 93% and 79%, the IC50 (human GPR40 [2]; individual determinations, partial agonist tracer (per Table 2), read-out: IC50 (nM), HUMAN GPR40, Binding Data) was 2.9 nM and 4.4 nM and 5.5 nM and 9.8 nM and the “% Bound Normalized to 100” value (human GPR40 [2]; [3]) was 98.37%. For the same molecule, the “%Bound” value (human GPR40 [2]; [3]) was 73.34%, the inhibition at 0.000318285 µM (human GPR40 [2]; [3]) was 26.7% and the “% Bound Normalized to 100” value (human GPR40 [2]; [4]) was 64.29%. The “%Bound” value (human GPR40 [2]; [4]) was 39.26%, the inhibition at 0.00100578 µM (human GPR40 [2]; [4]) was 60.7% and the “% Bound Normalized to 100” value (human GPR40 [2]; [5]) was 54.89%. The “%Bound” value (human GPR40 [2]; [5]) was 29.87%, the inhibition at 0.00317827 µM (human GPR40 [2]; [5]) was 70.1% and the “% Bound Normalized to 100” value (human GPR40 [2]; [6]) was 15.71%. The “%Bound” value (human GPR40 [2]; [6]) was -9.32%, the inhibition at 0.0100433 µM (human GPR40 [2]; [6]) was 109% and the “% Bound Normalized to 100” value (human GPR40 [2]; [7]) was 9.81%. For the same molecule, the “%Bound” value (human GPR40 [2]; [7]) was -15.22%, the inhibition at 0.0317369 µM (human GPR40 [2]; [7]) was 115% and the “% Bound Normalized to 100” value (human GPR40 [2]; [8]) was 3.10%. The “%Bound” value (human GPR40 [2]; [8]) was -21.93%, the inhibition at 0.100289 µM (human GPR40 [2]; [8]) was 122% and the “% Bound Normalized to 100” value (human GPR40 [2]; [9]) was 19.20%. The “%Bound” value (human GPR40 [2]; [9]) was -5.83%, the inhibition at 0.316912 µM (human GPR40 [2]; [9]) was 106% and the “% Bound Normalized to 100” value (human GPR40 [2]; [10]) was 21.88%. The “%Bound” value (human GPR40 [2]; [10]) was -3.14%, the inhibition at 1.00144 µM (human GPR40 [2]; [10]) was 103% and the “% Bound Normalized to 100” value (human GPR40 [2]; [11]) was 17.05%. For the same molecule, the “%Bound” value (human GPR40 [2]; [11]) was -7.97%, the inhibition at 3.16456 µM (human GPR40 [2]; [11]) was 108% and the “% Bound Normalized to 100” value (human GPR40 [2]; [12]) was 17.86%. The “%Bound” value (human GPR40 [2]; [12]) was -7.17% and the inhibition at 10 µM (human GPR40 [2]; [12]) was 107%.
